Where two headings read alike, the source gives them in different places.
Key:
Ba/F3-BCR-FGFR1 cells = assay: Inhibition of proliferation activity of Ba/F3-BCR-FGFR1 cells (CellTiter-Glo); type: cell-based; conditions: read-out: IC50 (nM) Ba/F3-BCR-FGFR1
Protocol: The present experiment used CellTiter-Glo® Luminescent Cell Viability Assay (Promega: G7573) kit, which was a homogeneous cell viability detection method and determined the cell viability of cultured cells by quantifying ATP. • ① Ba/F3-BCR-FGFR1 or Ba/F3-FGFR3-BAIAP2L1 cells were cultured in 1640 complete medium (Gibco: 11879020) (10% FBS (Gibco: 10091-148)+1% Pen Strep (Gibco: 15140122)) under the condition of 37°C and 5% CO2. • (2) The cells in logarithmic growth phase were harvested and counted using a […]. The trypan blue exclusion method was used to detect cell viability to ensure the cell viability was above 90%. • ③ The cell density was adjusted using 1640 complete medium, and then, the cells were seeded into a 96-well cell culture plate at 90 µL/well with a total of 2000 cells. • ④ A 10-fold drug solution was prepared starting from a maximum drug concentration of 10 µM and 4-fold serially diluted into10 concentrations. Then, 10 µL of each of the serially diluted compounds was transferred to the corresponding experimental wells of a 96-well cell plate, with two replicates for each drug concentration. • ⑤ The 96-well plate with the cells that had been treated with the drugs was placed under the condition of 37°C and 5% CO2 to be further cultured for 72 hours, and then analyzed by CTG. • ⑥ The CTG reagent was melted and the cell plate was equilibrated to room temperature for 30 minutes. • ⑦ 50 µL of the CTG solution was added to each well. • ⑧ The cell plate was shaken on an orbital shaker for 5 minutes to lyse the cells. • ⑨ The cell plate was placed at room temperature for 20 minutes to stabilize the luminescence signal. The luminescence values were read to collect the data. • ⑩ The data were analyzed using XLFit excel plugin version 5.5.0.5, and fitted with non-linear S-curve regression to obtain the dose-response curves and thus calculate the IC50 values. Y = Bottom + (Top-Bottom)/((1+(IC50/X))^(∧) HillSlope [formula]
(§1) "Top" refers to the maximum response, "Bottom" refers to the minimum response, and "HillSlope" refers to the slope of the curve.
"Max" represents the average value of the cell control+DMSO, and "Min" represents the average value of the medium control+DMSO.

RT112-FGFR3-V555M cells = assay: Inhibition of proliferation activity of RT112-FGFR3-V555M cells (CellTiter-Glo); type: cell-based; conditions: read-out: IC50 (nM) RT112-FGFR3-V555M
Protocol: The present experiment used CellTiter-Glo® Luminescent Cell Viability Assay (Promega: G7573) kit, which was a homogeneous cell viability detection method and determined the cell viability of cultured cells by quantifying ATP. • ① RT112-FGFR3-V555M cells were cultured in MEM complete medium (Gibco: 51200038) (10% FBS (Gibco: 10091-148)+1% Pen Strep (Gibco: 15140122)+1% NEAA (Gibco: 11140050)) under the condition of 37°C and 5% CO2. • (2) The cells in logarithmic growth phase were harvested and counted using a […]. The trypan blue exclusion method was used to detect cell viability to ensure the cell viability was above 90%. • ③ The cell density was adjusted using MEM complete medium, and then, the cells were seeded into a 96-well cell culture plate at 90 µL/well with a total of 5000 cells. • ④ The 96-well plate with the cells was placed under the condition of 37°C and 5% CO2 to be cultured for 24 hours. • ⑤ 24 hours later, a 10-fold drug solution was prepared starting from a maximum drug concentration of 10 µM and 4-fold serially diluted into10 concentrations. Then, 10 µL of each of the serially diluted compounds was transferred to the corresponding experimental wells of a 96-well cell plate, with two replicates for each drug concentration. • ⑥ The 96-well plate with the cells that had been treated with the drugs was placed under the condition of 37°C and 5% CO2 to be further cultured for 72 hours, and then analyzed by CTG. • ⑦ The CTG reagent was melted and the cell plate was equilibrated to room temperature for 30 minutes. • ⑧ 50 µL of the CTG solution was added to each well. • ⑨ The cell plate was shaken on an orbital shaker for 5 minutes to lyse the cells. • ⑩ The cell plate was placed at room temperature for 20 minutes to stabilize the luminescence signal. The luminescence values were read to collect the data. • ⑪ The data were analyzed using XLFit excel plugin version 5.5.0.5, and fitted with non-linear S-curve regression to obtain the dose-response curves and thus calculate the IC50 values. Y = Bottom + (Top-Bottom)/((1+(IC50/X))^(∧) HillSlope [formula]
as §1
"Max" represents the average value of the cell+DMSO control, and "Min" represents the average value of the medium control+DMSO.

FGFR1 = molecular target: T1, FGFR1 (Homo sapiens, UniProt P11362); assay: FGFR1 kinase activity inhibition assay (LanthaScreen TR-FRET); type: biochemical
T1 construct: cytoplasmic domain [398-822 (terminal) amino acids]; purchased Carna 08-133
How it was run: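 Emission ratio 520 nm/495 nm by TR-FRET after stopping reaction with 10 mM EDTA and 60 min incubation at 22°C. Inhibition normalized between no-enzyme (min) and DMSO (max) controls, then fitted to a four-parameter curve (Top, Bottom, HillSlope).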

[1] = FGFR1 kinase, TR-FRET, read-out: IC50 (nM) FGFR1
[2] = Ba/F3-BCR-FGFR1 cells, 72 hours, CTG
[3] = RT112-FGFR3-V555M cells, 72 hours, CTG

T1 sequence (P11362 398-822): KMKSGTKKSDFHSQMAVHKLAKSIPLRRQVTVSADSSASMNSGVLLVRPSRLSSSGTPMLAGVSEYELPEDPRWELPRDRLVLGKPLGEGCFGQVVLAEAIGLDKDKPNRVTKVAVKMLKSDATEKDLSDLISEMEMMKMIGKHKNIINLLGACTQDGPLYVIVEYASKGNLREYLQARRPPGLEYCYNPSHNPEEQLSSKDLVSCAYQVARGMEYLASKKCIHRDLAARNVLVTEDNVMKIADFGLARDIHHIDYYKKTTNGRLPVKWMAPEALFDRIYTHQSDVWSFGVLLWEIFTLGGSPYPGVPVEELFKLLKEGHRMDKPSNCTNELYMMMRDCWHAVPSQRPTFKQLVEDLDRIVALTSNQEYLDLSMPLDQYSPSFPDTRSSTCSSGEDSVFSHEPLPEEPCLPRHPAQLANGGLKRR

| IC50 (FGFR1; [1]) | IC50 (Ba/F3-BCR-FGFR1 cells; [2]) | SMILES | IC50 (Ba/F3-BCR-FGFR1 cells; 72 h) | IC50 (RT112-FGFR3-V555M cells; 72 h) | IC50 (FGFR1) | IC50 (RT112-FGFR3-V555M cells; [3]) |
| --- | --- | --- | --- | --- | --- | --- |
| 10 to 100 nM | 592 nM | C[C@@H](Oc1cc(F)c2[nH]nc(-c3cnn(CCN4CCOCC4)c3)c2c1)c1c(Cl)cncc1Cl [Example 12, (R)-4-(2-(4-(5-(1-(3,5-dichloropyridin-4-yl)ethoxy)-7-fluoro-1H-indazol-3-yl)-1H-pyrazol-1-yl)ethyl)morph oline] | – | – | – | – |
| 10 to 100 nM | 88.5 nM | C[C@@H](Oc1ccc2[nH]nc(-c3cnn(CCN4CCS(=O)(=O)CC4)c3)c2n1)c1c(Cl)cncc1Cl [Example 55, (R)-4-(2-(4-(5-(1-(3,5-dichloropyridin-4-yl)ethoxy)-1H-pyrazolo[4,3-b]pyridin-3-yl)-1H-pyrazol-1-yl)ethyl)thiomorph oline 1,1-dioxide] | – | – | – | – |
| 10 to 100 nM | 246 nM | CC(Oc1ccc2[nH]nc(-c3cnn(C)c3)c2c1)c1cccn2ncnc12 (stereo not shown) [Example 101, 8-(1-((3-(1-methyl-1H-pyrazol-4-yl)-1H-indazol-5-yl)oxy)ethyl)-[1,2,4]triazolo[1,5-a]pyridine] | – | – | – | – |
| 10 to 100 nM | 55.3 nM | Cc1cc2nccnc2c(C(C)Oc2ccc3[nH]nc(-c4cnn(C)c4)c3c2)n1 (stereo not shown) [Example 183, 7-methyl-5-(1-((3-(1-methyl-1H-pyrazol-4-yl)-1H-indazol-5-yl)oxy)ethyl)pyridino [3,4-b]pyrazine] | – | – | – | 10.4 nM |
| 10 to 100 nM | 277 nM | COCC(=O)N1CC(n2cc(-c3n[nH]c4ccc(OC(C)c5cccc6nccnc56)cc34)cn2)C1 (stereo not shown) [Example 188, 2-methoxy-1-(3-(4-(5-(1-(quinoxalin-5-yl)ethoxy)-1H-indazol-3-yl)-1H-pyrazol-1-yl)azetidin-1-yl)ethan-1-one] | – | – | – | 70.1 nM |
| 10 to 100 nM | 425 nM | CC(Oc1ccc2[nH]nc(-c3cnn(C4CN(C(=O)C(C)(C)O)C4)c3)c2c1)c1cccc2nccnc12 (stereo not shown) [Example 190, 2-hydroxy-2-methyl-1-(3-(4-(5-(1-(quinoxalin-5-yl)ethoxy)-1H-indazol-3-yl)-1H-pyrazol-1-yl)azetidin-1-yl)propan-1-one] | – | – | – | 81.6 nM |
| 1 to 10 nM | 390 nM | CC(Oc1cc2c(-c3cnn(C)c3)n[nH]c2cc1F)c1cc(Cl)cc2nccnc12 (stereo not shown) [Example 227, 7-chloro-5-(1-((6-fluoro-3-(1-methyl-1H-pyrazol-4-yl)-1H-indazol-5-yl)oxy)ethyl)qu inoxaline] | – | – | – | 128 nM |

The next lines start with the compound.

| SMILES | IC50 (FGFR1; [1]) | IC50 (Ba/F3-BCR-FGFR1 cells; [2]) | IC50 (Ba/F3-BCR-FGFR1 cells; 72 h) | IC50 (RT112-FGFR3-V555M cells; 72 h) | IC50 (FGFR1) | IC50 (RT112-FGFR3-V555M cells; [3]) |
| --- | --- | --- | --- | --- | --- | --- |
| C[C@@H](Oc1ccc2[nH]nc(-c3ccc(S(C)(=N)=O)nc3)c2c1)c1c(Cl)cncc1Cl (stereo partly drawn) [Comparative Example 85, (5-(5-((R)-1-(3,5-dichloropyridin-4-yl)ethoxy)-1H-indazol-3-yl)pyridin-2-yl)(imino)(methyl)-sulfanone, reference compound] | – | – | 615 nM | 334 nM | – | – |
| C[C@@H](Oc1ccc2[nH]nc(-c3cnn(C)c3)c2n1)c1c(Cl)cncc1Cl [Example 29, (R)-5-(1-(3,5-dichloropyridin-4-yl)ethoxy)-3-(1-methyl-1H-pyrazol-4-yl)-1H-pyrazolo[4,3-b]pyridine] | 1 to 10 nM | 38 nM | – | – | – | – |
| C[C@@H](Oc1ccc2[nH]nc(-c3cnn(CCN4CCN(C)C(=O)C4)c3)c2n1)c1c(Cl)cncc1Cl [Example 54, (R)-4-(2-(4-(5-(1-(3,5-dichloropyridin-4-yl)ethoxy)-1H-pyrazolo[4,3-b]pyridin-3-yl)-1H-pyrazol-1-yl)ethyl)-1-methylpiperazin-2-one] | 1 to 10 nM | 177 nM | – | – | – | – |
| CC(Oc1ccc2[nH]nc(-c3cnn(C)c3)c2c1)c1cccc2ncccc12 (stereo not shown) [Example 88, 5-(1-((3-(1-methyl-1H-pyrazol-4-yl)-1H-indazol-5-yl)oxy)ethyl)quin oline] | 10 to 100 nM | 3420 nM | – | – | – | – |
| CC(Oc1ccc2[nH]nc(-c3cnn(C)c3)c2c1)c1cccc2nccnc12 (stereo not shown) [Example 92, 5-(1-((3-(1-methyl-1H-pyrazol-4-yl)-1H-indazol-5-yl)oxy)ethyl)quin oxaline] | 1 to 10 nM | 98.6 nM | – | – | – | – |
| Cc1ccc2ncccc2c1C(C)Oc1ccc2[nH]nc(-c3cnn(C)c3)c2c1 (stereo not shown) [Example 95, 6-methyl-5-(1-((3-(1-methyl-1H-pyrazol-4-yl)-1H-indazol-5-yl)oxy)ethyl)quinolinee] | – | 406 nM | – | – | 10 to 100 nM | 110 nM |
| CC(Oc1ccc2[nH]nc(-c3cnn(C)c3)c2c1)c1c(C(F)F)ccc2ncccc12 (stereo not shown) [Example 127, 6-(difluoromethyl)-5-(1-((3-(1-methyl-1H-pyrazol-4-yl)-1H-indazol-5-yl)oxy)ethyl)quinoline] | > 100 nM | 941 nM | – | – | – | 118 nM |
| CC(Oc1ccc2[nH]nc(-c3cnn(C)c3)c2c1)c1c(CF)ccc2ncccc12 (stereo not shown) [Example 130, 6-(fluoromethyl)-5-(1-((3-(1-methyl-1H-pyrazol-4-yl)-1H-indazol-5-yl)oxy)ethyl)q uinoline] | 10 to 100 nM | 1190 nM | – | – | – | 152 nM |
| CC(Oc1ccc2[nH]nc(-c3cnn(C)c3)c2c1)c1cc(Cl)cc2nccnc12 (stereo not shown) [Example 136, 7-chloro-5-(1-((3-(1-methyl-1H-pyrazol-4-yl)-1H-indazol-5-yl)oxy)ethyl)qu inoxaline] | 10 to 100 nM | 377 nM | – | – | – | 119 nM |
| CC(=O)N1CC(n2cc(-c3n[nH]c4ccc(OC(C)c5cccc6nccnc56)cc34)cn2)C1 (stereo not shown) [Example 218, 1-(3-(4-(5-(1-(quinoxalin-5-yl)ethoxy)-1H-indazol-3-yl)-1H-pyrazol-1-yl)azetidin-1-yl)ethan-1-one] | 10 to 100 nM | 441 nM | – | – | – | 64.7 nM |
| CC(Oc1ccc2[nH]nc(-c3cnn(C)c3)c2c1)c1nc(C(F)F)cc2nccnc12 (stereo not shown) [Example 236, 7-(difluoromethyl)-5-(1-((3-(1-methyl-1H-pyrazol-4-yl)-1H-indazol-5-yl)oxy)ethyl)pyridino[3,4-b]pyrazine] | 1 to 10 nM | 161 nM | – | – | – | 38.9 nM |
| [2H]C([2H])([2H])c1cc2nccnc2c(C(C)Oc2ccc3[nH]nc(-c4cnn(C)c4)c3c2)n1 (stereo not shown) [Example 241] | – | 62.3 nM | – | – | 1 to 10 nM | 18.2 nM |

— patent EP4644383A1 (Jiangsu Yahong Meditech Co., Ltd., priority 2022, dated 2024)
